According to patent US9340590B2 (priority 2011, dated 2016):
Read-outs that look alike come from different tables or passages of the source. Positions of bridges follow the written chain, without caps; N, C: chain ends. Residues, ends and D or L forms follow the SMILES beside them.

Legend:
Assay in all cases: cell-based
hNav1.7 = hNav1.7 (Homo sapiens, UniProt Q15858); assay type: cell-based
hNav1.3 = hNav1.3 (Homo sapiens, UniProt Q9NY46); settings: IonWorks Quattro, read-out: IWQ Use Nav1.3
hNav1.5 = hNav1.5 (Homo sapiens, UniProt Q14524)
Chain of hNav1.5 (Q14524 whole entry, looked up): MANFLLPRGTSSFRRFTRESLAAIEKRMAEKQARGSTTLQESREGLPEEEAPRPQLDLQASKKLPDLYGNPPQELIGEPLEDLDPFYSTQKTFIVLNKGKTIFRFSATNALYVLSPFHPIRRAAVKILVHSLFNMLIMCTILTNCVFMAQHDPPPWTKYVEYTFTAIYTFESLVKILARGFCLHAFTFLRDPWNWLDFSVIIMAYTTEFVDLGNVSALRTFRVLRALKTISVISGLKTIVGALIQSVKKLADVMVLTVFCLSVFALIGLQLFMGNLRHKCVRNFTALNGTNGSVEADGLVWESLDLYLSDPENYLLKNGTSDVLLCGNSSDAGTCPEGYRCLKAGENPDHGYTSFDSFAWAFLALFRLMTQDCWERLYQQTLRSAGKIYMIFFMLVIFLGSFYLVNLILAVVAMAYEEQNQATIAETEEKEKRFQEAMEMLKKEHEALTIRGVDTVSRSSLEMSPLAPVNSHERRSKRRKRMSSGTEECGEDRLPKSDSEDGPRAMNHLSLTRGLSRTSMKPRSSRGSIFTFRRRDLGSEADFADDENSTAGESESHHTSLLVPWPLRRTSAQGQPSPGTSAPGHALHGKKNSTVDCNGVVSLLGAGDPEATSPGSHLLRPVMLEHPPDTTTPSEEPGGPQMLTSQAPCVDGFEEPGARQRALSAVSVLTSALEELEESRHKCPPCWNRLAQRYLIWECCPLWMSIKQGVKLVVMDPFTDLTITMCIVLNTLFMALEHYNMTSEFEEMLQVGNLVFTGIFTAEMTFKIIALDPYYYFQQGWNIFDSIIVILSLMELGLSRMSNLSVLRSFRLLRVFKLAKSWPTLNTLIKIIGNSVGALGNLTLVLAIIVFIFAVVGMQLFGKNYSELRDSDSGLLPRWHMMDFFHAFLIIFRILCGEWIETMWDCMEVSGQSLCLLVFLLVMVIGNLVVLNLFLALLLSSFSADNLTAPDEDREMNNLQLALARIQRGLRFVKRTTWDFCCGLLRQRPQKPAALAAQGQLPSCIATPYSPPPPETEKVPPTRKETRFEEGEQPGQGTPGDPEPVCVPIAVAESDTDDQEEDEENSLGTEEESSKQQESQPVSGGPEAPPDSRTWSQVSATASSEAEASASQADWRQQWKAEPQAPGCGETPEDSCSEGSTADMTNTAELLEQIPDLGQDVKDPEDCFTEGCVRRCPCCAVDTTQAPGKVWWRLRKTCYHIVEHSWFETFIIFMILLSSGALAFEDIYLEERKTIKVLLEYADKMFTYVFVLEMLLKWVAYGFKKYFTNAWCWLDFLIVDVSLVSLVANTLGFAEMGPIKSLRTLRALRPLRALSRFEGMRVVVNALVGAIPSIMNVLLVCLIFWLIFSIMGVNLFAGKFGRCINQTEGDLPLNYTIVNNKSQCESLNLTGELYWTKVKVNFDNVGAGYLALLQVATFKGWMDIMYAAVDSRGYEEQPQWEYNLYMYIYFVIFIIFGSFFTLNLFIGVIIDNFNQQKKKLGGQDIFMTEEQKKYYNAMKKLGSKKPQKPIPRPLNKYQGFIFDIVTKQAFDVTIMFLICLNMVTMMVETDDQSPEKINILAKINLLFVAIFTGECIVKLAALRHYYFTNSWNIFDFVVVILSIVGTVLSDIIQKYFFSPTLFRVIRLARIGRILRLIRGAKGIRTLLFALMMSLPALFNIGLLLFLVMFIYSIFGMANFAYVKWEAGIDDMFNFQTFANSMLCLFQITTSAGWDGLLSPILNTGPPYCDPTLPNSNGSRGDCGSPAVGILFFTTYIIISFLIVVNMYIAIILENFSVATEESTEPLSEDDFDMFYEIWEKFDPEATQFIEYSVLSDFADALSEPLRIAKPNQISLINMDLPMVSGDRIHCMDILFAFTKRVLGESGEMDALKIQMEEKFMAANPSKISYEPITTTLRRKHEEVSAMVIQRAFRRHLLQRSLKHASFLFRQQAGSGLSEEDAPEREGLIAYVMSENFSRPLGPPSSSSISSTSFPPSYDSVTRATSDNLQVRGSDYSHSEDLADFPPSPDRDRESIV

[1] = IonWorks Quattro, use-dependent block, hNav1.7, read-out: IWQ Use Nav1.7
[2] = IonWorks Quattro, use-dependent block, hNav1.5, read-out: IWQ Use Nav1.5
[3] = IonWorks Quattro, Use, read-out: IWQ Use Nav1.7
[4] = IonWorks Quattro, Use, read-out: IWQ Use Nav1.5

Chain of hNav1.7 (Q15858 whole entry, looked up): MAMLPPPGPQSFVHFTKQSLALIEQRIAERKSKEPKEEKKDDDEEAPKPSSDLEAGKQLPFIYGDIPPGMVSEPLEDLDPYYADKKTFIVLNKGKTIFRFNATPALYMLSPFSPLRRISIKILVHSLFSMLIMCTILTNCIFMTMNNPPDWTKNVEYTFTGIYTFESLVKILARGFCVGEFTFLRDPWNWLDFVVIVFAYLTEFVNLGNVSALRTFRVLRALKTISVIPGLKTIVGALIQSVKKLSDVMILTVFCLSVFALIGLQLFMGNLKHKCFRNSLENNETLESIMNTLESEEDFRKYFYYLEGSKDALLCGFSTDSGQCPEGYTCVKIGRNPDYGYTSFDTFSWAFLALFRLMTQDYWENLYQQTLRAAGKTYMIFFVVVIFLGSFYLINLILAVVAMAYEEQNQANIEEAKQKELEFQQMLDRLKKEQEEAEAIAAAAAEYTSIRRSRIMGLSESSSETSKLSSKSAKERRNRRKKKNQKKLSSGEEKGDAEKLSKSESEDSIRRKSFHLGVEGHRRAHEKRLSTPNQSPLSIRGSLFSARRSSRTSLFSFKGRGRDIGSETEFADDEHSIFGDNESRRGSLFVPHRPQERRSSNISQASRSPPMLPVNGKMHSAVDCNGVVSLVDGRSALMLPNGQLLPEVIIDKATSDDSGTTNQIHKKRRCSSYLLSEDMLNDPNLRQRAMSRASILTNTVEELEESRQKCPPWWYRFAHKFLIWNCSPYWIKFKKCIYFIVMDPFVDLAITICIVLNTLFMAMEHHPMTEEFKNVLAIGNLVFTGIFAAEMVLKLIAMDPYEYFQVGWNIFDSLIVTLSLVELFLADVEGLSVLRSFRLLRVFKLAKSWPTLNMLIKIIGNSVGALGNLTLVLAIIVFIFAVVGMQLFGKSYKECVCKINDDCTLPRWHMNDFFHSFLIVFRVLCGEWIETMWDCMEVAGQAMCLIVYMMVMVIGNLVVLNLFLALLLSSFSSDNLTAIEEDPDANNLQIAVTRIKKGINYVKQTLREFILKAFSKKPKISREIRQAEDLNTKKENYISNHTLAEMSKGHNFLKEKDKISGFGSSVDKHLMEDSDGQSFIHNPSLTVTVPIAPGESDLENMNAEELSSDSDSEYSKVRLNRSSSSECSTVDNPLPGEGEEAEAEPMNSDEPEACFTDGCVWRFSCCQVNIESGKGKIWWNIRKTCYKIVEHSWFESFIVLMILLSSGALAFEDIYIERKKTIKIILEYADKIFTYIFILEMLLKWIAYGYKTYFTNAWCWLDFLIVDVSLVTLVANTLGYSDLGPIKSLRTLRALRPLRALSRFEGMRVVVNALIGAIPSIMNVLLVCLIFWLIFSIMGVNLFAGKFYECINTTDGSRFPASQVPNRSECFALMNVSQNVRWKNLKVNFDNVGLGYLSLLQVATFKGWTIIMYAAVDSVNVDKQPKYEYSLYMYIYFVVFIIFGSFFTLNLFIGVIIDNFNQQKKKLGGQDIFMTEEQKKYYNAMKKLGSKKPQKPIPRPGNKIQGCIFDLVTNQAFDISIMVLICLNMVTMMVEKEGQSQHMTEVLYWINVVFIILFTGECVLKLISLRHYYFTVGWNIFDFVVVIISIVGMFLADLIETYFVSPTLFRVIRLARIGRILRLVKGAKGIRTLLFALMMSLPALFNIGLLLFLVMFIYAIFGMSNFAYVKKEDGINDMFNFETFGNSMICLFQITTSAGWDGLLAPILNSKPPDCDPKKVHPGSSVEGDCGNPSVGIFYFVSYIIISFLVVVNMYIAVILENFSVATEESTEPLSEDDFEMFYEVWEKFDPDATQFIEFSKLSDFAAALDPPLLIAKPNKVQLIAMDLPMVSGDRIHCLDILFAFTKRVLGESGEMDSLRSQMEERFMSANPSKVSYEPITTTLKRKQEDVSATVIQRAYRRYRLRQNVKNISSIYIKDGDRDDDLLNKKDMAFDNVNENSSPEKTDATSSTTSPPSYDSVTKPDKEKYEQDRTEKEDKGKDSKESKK

Compound | IC50 (hNav1.7; [1]) [µM] | IC50 (hNav1.3; use-dependent block, hNav1.3) [µM] | IC50 (hNav1.5; [2]) [µM] | IC50 (hNav1.7; [3]) [µM] | IC50 (hNav1.3; Use) [µM] | IC50 (hNav1.5; [4]) [µM] | also measured
CC[C@H](C)[C@@H]1NC(=O)[C@@H]2CSSC[C@@H]3NC(=O)[C@H](C(C)C)NC(=O)[C@H](CC(C)C)NC(=O)[C@H](CC(N)=O)NC(=O)[C@@H]4CCCN4C(=O)[C@H](CCCNC(=N)N)NC(=O)[C@H](CSSC[C@H](NC(=O)[C@@H](N)CC(=O)O)C(=O)N[C@@H](CC(C)C)C(=O)NCC(=O)N[C@@H](Cc4ccccc4)C(=O)N[C@@H](CCSC)C(=O)N[C@@H](CCCNC(N)=O)C(=O)N[C@@H](CCCCN)C(=O)N2)NC(=O)[C@H](CSSC[C@@H](C(=O)N[C@@H](CCCCN)C(=O)N[C@@H](Cc2ccc(O)cc2)C(=O)N[C@H](C(=O)N[C@@H](Cc2ccccc2)C(N)=O)C(C)C)NC(=O)[C@H](Cc2c[nH]c4ccccc24)NC(=O)[C@H](CCCCN)NC(=O)[C@H](Cc2c[nH]cn2)NC(=O)[C@H]([C@@H](C)O)NC(=O)[C@H](CCCNC(=N)N)NC(=O)[C@H](CO)NC3=O)NC(=O)[C@H](CCCCN)NC(=O)[C@H](CC(=O)O)NC(=O)[C@H](CC(N)=O)NC(=O)[C@H](CC(=O)O)NC(=O)[C@@H]2CCCN2C1=O [[Cit7]GpTx-1(1-34)] | 0.63 | 0.56 | 14.4 |  |  |  | 
CC[C@H](C)[C@@H]1NC(=O)[C@@H]2CSSC[C@@H]3NC(=O)[C@H](C(C)C)NC(=O)[C@H](CC(C)C)NC(=O)[C@H](CC(N)=O)NC(=O)[C@@H]4CCCN4C(=O)[C@H](CCCNC(=N)N)NC(=O)[C@H](CSSC[C@H](NC(=O)[C@@H](N)CC(=O)O)C(=O)N[C@@H](CC(C)C)C(=O)NCC(=O)N[C@@H](Cc4ccccc4)C(=O)N[C@@H](CCSC)C(=O)N[C@@H](CCCCN)C(=O)N[C@@H](CCCCN)C(=O)N2)NC(=O)[C@H](CSSC[C@@H](C(=O)N[C@@H](CCCCN)C(=O)N[C@@H](Cc2ccc(O)cc2)C(=O)N[C@H](C(=O)N[C@@H](Cc2ccccc2)C(N)=O)C(C)C)NC(=O)[C@H](Cc2c[nH]c4ccccc24)NC(=O)[C@H](CCCCN)NC(=O)[C@H](Cc2c[nH]cn2)NC(=O)[C@H]([C@@H](C)O)NC(=O)[C@H](CCCNC(=N)N)NC(=O)[C@H](CO)NC3=O)NC(=O)[C@H](CCCCN)NC(=O)[C@H](CC(=O)O)NC(=O)[C@H](CC(N)=O)NC(=O)[C@H](CC(=O)O)NC(=O)[C@@H]2CCCN2C1=O [[Lys7]GpTx-1(1-34)] (H-DCLGFMKKCIPDNDKCCRPNLVCSRTHKWCKYVF-NH2; disulfide 2-17, 9-23, 16-30) | 0.53 | 0.47 | 23.3 |  |  |  | 
CC[C@H](C)[C@@H]1NC(=O)[C@@H]2CSSC[C@@H]3NC(=O)[C@H](C(C)C)NC(=O)[C@H](CC(C)C)NC(=O)[C@H](CC(N)=O)NC(=O)[C@@H]4CCCN4C(=O)[C@H](CCCNC(=N)N)NC(=O)[C@H](CSSC[C@H](NC(=O)[C@@H](N)CC(=O)O)C(=O)N[C@@H](CC(C)C)C(=O)NCC(=O)N[C@@H](Cc4ccccc4)C(=O)N[C@@H](CCSC)C(=O)N[C@@H](CCCNC(=N)N)C(=O)N[C@@H](CCCCN)C(=O)N2)NC(=O)[C@H](CSSC[C@@H](C(=O)N[C@@H](CCCCN)C(=O)N[C@@H](Cc2ccc(O)cc2)C(=O)N[C@H](C(=O)N[C@@H](Cc2ccccc2)C(N)=O)C(C)C)NC(=O)[C@H](Cc2c[nH]c4ccccc24)NC(=O)[C@H](CCCCN)NC(=O)[C@H](Cc2cnc[nH]2)NC(=O)[C@H]([C@@H](C)O)NC(=O)[C@H](CCCNC(=N)N)NC(=O)[C@H](CO)NC3=O)NC(=O)[C@H](CCCCN)NC(=O)[C@H](CC(=O)O)NC(=O)[C@H](C)NC(=O)[C@H](CC(=O)O)NC(=O)[C@@H]2CCCN2C1=O [compound 5] (H-DCLGFMRKCIPDADKCCRPNLVCSRTHKWCKYVF-NH2; disulfide 2-17, 9-23, 16-30) |  |  |  | 0.17 | 0.16 | 8.15 | 
CC[C@H](C)[C@@H]1NC(=O)[C@@H]2CSSC[C@@H]3NC(=O)[C@H](C(C)C)NC(=O)[C@H](CC(C)C)NC(=O)[C@H](CC(N)=O)NC(=O)[C@@H]4CCCN4C(=O)[C@H](CCCNC(=N)N)NC(=O)[C@H](CSSC[C@H](NC(=O)[C@@H](N)CC(=O)O)C(=O)N[C@@H](CC(C)C)C(=O)NCC(=O)N[C@@H](Cc4ccccc4)C(=O)N[C@@H](CCSC)C(=O)N[C@@H](CCCNC(=N)N)C(=O)N[C@@H](CCCCN)C(=O)N2)NC(=O)[C@H](CSSC[C@@H](C(=O)N[C@@H](CCCCN)C(=O)N[C@@H](Cc2ccc(O)cc2)C(=O)N[C@H](C(=O)N[C@@H](Cc2ccccc2)C(N)=O)C(C)C)NC(=O)[C@H](Cc2c[nH]c4ccccc24)NC(=O)[C@H](CCCCN)NC(=O)[C@H](Cc2cnc[nH]2)NC(=O)[C@H]([C@@H](C)O)NC(=O)[C@H](CCCNC(=N)N)NC(=O)[C@H](CO)NC3=O)NC(=O)[C@H](C)NC(=O)[C@H](CC(=O)O)NC(=O)[C@H](CC(N)=O)NC(=O)[C@H](CC(=O)O)NC(=O)[C@@H]2CCCN2C1=O [compound 6] (H-DCLGFMRKCIPDNDACCRPNLVCSRTHKWCKYVF-NH2; disulfide 2-17, 9-23, 16-30) |  |  |  | 0.22 | 0.19 | 9.64 | 
CC[C@H](C)[C@@H]1NC(=O)[C@@H]2CSSC[C@@H]3NC(=O)[C@H](C(C)C)NC(=O)[C@H](CC(C)C)NC(=O)[C@H](CC(N)=O)NC(=O)[C@@H]4CCCN4C(=O)[C@H](CCCNC(=N)N)NC(=O)[C@H](CSSC[C@H](NC(=O)[C@@H](N)CC(=O)O)C(=O)N[C@@H](CC(C)C)C(=O)NCC(=O)N[C@@H](Cc4ccccc4)C(=O)N[C@@H](CCSC)C(=O)N[C@@H](CCCNC(=N)N)C(=O)N[C@@H](CCCCN)C(=O)N2)NC(=O)[C@H](CSSC[C@@H](C(=O)N[C@@H](CCCCN)C(=O)N[C@@H](Cc2ccc(O)cc2)C(=O)N[C@H](C(=O)N[C@@H](Cc2ccccc2)C(N)=O)C(C)C)NC(=O)[C@H](Cc2c[nH]c4ccccc24)NC(=O)[C@H](CCCCN)NC(=O)[C@H](Cc2cnc[nH]2)NC(=O)[C@H]([C@@H](C)O)NC(=O)[C@H](C)NC(=O)[C@H](CO)NC3=O)NC(=O)[C@H](CCCCN)NC(=O)[C@H](CC(=O)O)NC(=O)[C@H](CC(N)=O)NC(=O)[C@H](CC(=O)O)NC(=O)[C@@H]2CCCN2C1=O [compound 9] (H-DCLGFMRKCIPDNDKCCRPNLVCSATHKWCKYVF-NH2; disulfide 2-17, 9-23, 16-30) |  |  |  |  | 0.84 | 18.8 | IC50 (hNav1.7): 0.3 µM
CC[C@H](C)[C@@H]1NC(=O)[C@@H]2CSSC[C@@H]3NC(=O)[C@H](C(C)C)NC(=O)[C@H](CC(C)C)NC(=O)[C@H](CC(N)=O)NC(=O)[C@@H]4CCCN4C(=O)[C@H](CCCNC(=N)N)NC(=O)[C@H](CSSC[C@H](NC(=O)[C@@H](N)CC(=O)O)C(=O)N[C@@H](CC(C)C)C(=O)NCC(=O)N[C@@H](Cc4ccccc4)C(=O)N[C@@H](CCSC)C(=O)N[C@@H](CCCNC(=N)N)C(=O)N[C@@H](CCCCN)C(=O)N2)NC(=O)[C@H](CSSC[C@@H](C(=O)N[C@@H](CCCCN)C(=O)N[C@@H](Cc2ccc(O)cc2)C(=O)N[C@H](C(=O)N[C@@H](Cc2ccccc2)C(N)=O)C(C)C)NC(=O)[C@H](Cc2c[nH]c4ccccc24)NC(=O)[C@H](CCCCN)NC(=O)[C@H](Cc2cnc[nH]2)NC(=O)[C@H](C)NC(=O)[C@H](CCCNC(=N)N)NC(=O)[C@H](CO)NC3=O)NC(=O)[C@H](CCCCN)NC(=O)[C@H](CC(=O)O)NC(=O)[C@H](CC(N)=O)NC(=O)[C@H](CC(=O)O)NC(=O)[C@@H]2CCCN2C1=O [compound 10] (H-DCLGFMRKCIPDNDKCCRPNLVCSRAHKWCKYVF-NH2; disulfide 2-17, 9-23, 16-30) |  |  |  |  |  |  | IC50 (hNav1.7; Table 22, IonWorks Quattro, use, […], read-out: IWQ Use Nav1.7): 0.25 µM; IC50 (hNav1.3; Table 22, use, […]): 0.17 µM; IC50 (hNav1.5; IWQ Use Nav1.5 (μM)): 10.5 µM
